Legend:
KOR = test: Kinase assay (LANCE Ultra TR-FRET), KOR; format: biochemical; settings: kinase activity, TR-FRET
Protocol: Kinase assays were conducted in 384-well plates using LANCE ultra 66 time-resolved fluorescence resonance energy transfer (TR-FRET) methods, according to the manufacturer’s instructions (Perkin-Elmer). In brief, each kinase was pre-incubated with a serially diluted compound for 30 min, incubated with ULight poly-GT peptide substrate and ATP for up to 1 h. Thirty minutes after adding Eu-labeled anti-phosphopeptides Ab diluted in LANCE Detection Buffer, LANCE signals were measured with an EnVision multilabel reader (Perkin-Elmer).

NZB/W F1 mice = test: NZB/W mouse model of SLE / lupus nephritis, oral dosing; format: in vivo; settings: 30 mpk oral once daily
Protocol: NZB/W female mice aged 18 weeks were assigned to four groups by distributing mice by body weight and anti-dsDNA IgG titer equivalently across the groups. Each group of mice was administered orally with 42 mg per kg body weight (mpk) of SKI-O-703 dissolved in 50 mM citric acid, 84 mpk of SKI-O-703, 30 mpk of tofacitinib (Selleckchem) dissolved in 0.5% carboxymethyl cellulose (Sigma Aldrich) containing 0.025% Tween 20, or a mixture of the two vehicles. The drugs were given once daily up to 34 weeks of age. Body weight was measured every 2 weeks and serum was collected every 4 weeks. At the termination of the experiments (34 weeks of age), serum, urine, spleen, BM, and kidneys were removed post mortem and assayed by histopathological and biochemical methods as below. Levels of blood urea nitrogen (BUN) and creatinine were measured by Knotus (Incheon, Korea).
Kidneys removed from the NZB/W mice were fixed in 4% paraformaldehyde, embedded in paraffin, sectioned at 3 μm thickness, and stained with periodic acid-Schiff (PAS) and hematoxylin (Sigma Aldrich). […] Glomerular size was measured using Image J software. To assess the glomerular size and hypercellularity of each mouse, more than 20 glomeruli per mouse were individually examined and averaged.
Kidneys and spleens of NZB/W mice were embedded in OCT compound (Sakura Finetek, Torrance, CA, USA) and snap-frozen in liquid nitrogen. Frozen sections were fixed in acetone and blocked with 10% normal donkey serum (Sigma Aldrich). Kidney sections were stained with a 1:200 dilution of anti-IgG-biotin (Sigma Aldrich), anti-IgM-biotin (Southern Biotech) and anti-C3-biotin (Bioss), followed by reaction with 1:200-dilution of streptavidin-cy3 (Invitrogen). Spleen sections were stained with anti-GL7-FITC, anti-CD4-APC, and anti-IgD-PE (all from BD Biosciences or eBioscience). Fluorescence images were acquired using a TCS SP5 confocal microscope (Leica). The area of GCs composed with GL7^+ cells per image was calculated using ImageJ software (NIH, Bethesda, MD, USA).
Titers of anti-dsDNA IgG Ab were measured by ELISA, as described previously. In brief, sera were diluted 1/10 000 to 1/50 000 in PBS and applied to immunosorbent plates (Nunc) precoated with 5 μg/ml poly-L-lysine and 5 μg/ml thymic DNA (Sigma Aldrich). The serum containing the highest titer of anti-dsDNA IgG was serially diluted and used as standard. The plates were incubated with anti-mouse IgG-biotin (Sigma Aldrich) and streptavidin-HRP (BD Biosciences). The concentration of albumin in urine was measured by quantitative ELISA using a mouse albumin ELISA kit (Bethyl), according to the manufacturer’s instructions. The concentration of serum B-cell activating factor of the TNF family (BAFF) was quantitated using a BAFF/BLys/TNFSF13B ELISA Kit (R&D Systems).
Single-cell suspensions of spleen and LN cells were prepared as previously described. Joint tissues from hind paws of KSTA mice were dissected free of soft tissue and bones, digested with 100 μg/ml Liberase (Roche) for 45 min at 37 °C, and filtered through a 70-μm-pore cell strainer (SPL Life Sciences) to prepare single cell suspensions of synovial infiltrates. The single cell suspensions were stained with an appropriate combination of mAbs and analyzed by FACS. The mAbs used were: CD138-PE, B220-PerCP or -APC-cy7, FAS-PE, CD19-PerCP or -APC, CD21-FITC or -APC, CD43-APC, CD23-PE-cy7, CD8a-PE, CD25-APC-cy7, CXCR5-biotin, GL7-FITC, CD45.2-FITC, CD27-FITC, Ki-67-FITC, Gr-1-FITC, CD4-FITC or -APC-cy7, phospho-Syk-PE, CD11b-PE or -PerCP, PD-1-APC, CD44-APC-cy7, and F4/80-PerCP mAbs (all from BD Biosciences, eBioscience or Biolegend). Streptavidin-PerCP was purchased from BD Biosciences.
Splenic CD19^+ B cells from NZB/W mice were sorted by MACS, and lysed with Trizol reagent (Invitrogen) followed by standard methods of total RNA purification. The RNA was assayed by RT and quantitative PCR as described. […]

human primary B cells = test: IgM, IgG and IL-6 secretion by stimulated human primary B cells (ELISA); format: cell-based; settings: human primary B cells
Protocol: Human CD19^+ B cells (Lonza) were pre-treated with inhibitors for 1 h and stimulated for 24 h with 50 nM CpG ODN 2006 plus 10 ng/ml IL-2 or 1 μM CpG ODN 2006 plus 20 ng/ml IFN-α. Culture supernatants were assayed by ELISA to detect secreted IgG, IgM, and IL-6, according to the manufacturer’s instructions.
(§1) Figure 2: in vitro effects of SKI-O -703 on the proliferation, survival, and differentiation of B cells. Mouse primary B cells were labeled with CP670, and stimulated with either anti-IgM mAb, CD40L and IL-4 (A) or LPS (B) for 72 h in the presence or absence of SKI-O-703 and tofacitinib at the indicated concentrations; they were then assayed by FACS. (C and D) Mouse primary B cells were cultured as in A and B for 24 h, stained with Annexin V and 7-AAD, and assayed by FACS. Representative FACS profiles and graphs displaying mean Annexin V-positivity are shown. (E) Human primary B cells were stimulated with CpG ODN plus IL-2 (to detect IgM and IgG) or CpG ODN 2006 plus IFN-α (to detect IL-6) in the presence or absence of inhibitors. The culture supernatants were assayed by ELISA. Graphs are expressed as % positivity relative to the controls (without inhibitor). The data are representative of 2–3 independent experiments. *P < 0.05, **P < 0.01, and ***P < 0.001, compared with vehicle control by two-tailed unpaired Students t-tests.

mouse primary B cells = test: CP670-dilution proliferation assay, BCR crosslinking (anti-IgM) stimulated B cells; format: cell-based; settings: up to 1 μM
Protocol: Splenic CD19^+ B cells from C57BL/6 mice were sorted by MACS (Milteny Biotec), stained with 3 μM cell proliferation dye eFluor 670 (CP670; eBioscience), and cultured for 72 h in the presence of either 10 μg/ml LPS (Sigma Aldrich) or 5 μg/ml anti-mouse IgM (Jackson Immuno Research Laboratories), 10 μg/ml anti-CD40 mAb (Biolegend) and 10 ng/ml IL-4 (Peprotech), and assayed by FACS. To detect apoptotic cells, unstimulated cells were cultured for 24 h, stained with Annexin V and 7-aminoactinomycin D (7-AAD), and assayed by FACS.
as §1, with “The data are representative of 2–3 independent experiments. *P < 0.05, **P < 0.01, and ***P < 0.001, compared with vehicle control by two-tailed unpaired Students t-tests.” left out

**Q.** How did the IC50 (KOR) turn out when `COc1cc(Nc2ncc(F)c(Nc3ccc4c(n3)NC(=O)C(C)(C)O4)n2)cc(OC)c1OC` [R406, reference compound] was run?
**A.** Its IC50 is 18.8 nM.

**Q.** With `C[C@@H]1CCN(C(=O)CC#N)C[C@@H]1N(C)c1ncnc2[nH]ccc12` [tofacitinib, reference compound] as the compound, how does the Body weights (NZB/W F1 mice; 18-34 weeks of age) read?
**A.** The Body weights was “reduced both body weights and spleen weights”.

**Q.** What about the Spleen weights (NZB/W F1 mice; 18-34 weeks of age) of the same compound?
**A.** The Spleen weights was “reduced both body weights and spleen weights”.

**Q.** And the “Serum anti-dsDNA IgG Ab titer” value (NZB/W F1 mice; trend to reduction at 26 and 30 weeks of age)?
**A.** Its value is “did not reach statistical significance”.

**Q.** What about the IL-6 production (human primary B cells; CpG ODN 2006 plus IFN-α) of the same compound?
**A.** Its IL-6 production is “even increased IL-6 production”.

**Q.** And the Ab production (human primary B cells; CpG ODN plus IL-2)?
**A.** The Ab production was “minimal effect”.

**Q.** And the “Proliferation and death of primary B and T cells” value (mouse primary B cells)?
**A.** Its value is “did not significantly inhibit”.

Source: article PMC9993459, “A novel selective spleen tyrosine kinase inhibitor SKI-O-703 (cevidoplenib) ameliorates lupus nephritis and serum-induced arthritis in murine models” (Clinical and Experimental Immunology, 2022)
